SMILES strings stand for the structures. The source made the active and inactive calls. No cut-off for these calls is given here.

The species entered for experiment [1] is Homo sapiens. Nature of the experiment: Inhibition of recombinant human RAD51/p53 (unknown origin) interaction at 200 uM measured by ELISA assay.
Experiment [2] concerns the target T1, DNA repair protein RAD51 homolog 1 (Homo sapiens) (UniProt Q06609).
T1 sequence (whole entry): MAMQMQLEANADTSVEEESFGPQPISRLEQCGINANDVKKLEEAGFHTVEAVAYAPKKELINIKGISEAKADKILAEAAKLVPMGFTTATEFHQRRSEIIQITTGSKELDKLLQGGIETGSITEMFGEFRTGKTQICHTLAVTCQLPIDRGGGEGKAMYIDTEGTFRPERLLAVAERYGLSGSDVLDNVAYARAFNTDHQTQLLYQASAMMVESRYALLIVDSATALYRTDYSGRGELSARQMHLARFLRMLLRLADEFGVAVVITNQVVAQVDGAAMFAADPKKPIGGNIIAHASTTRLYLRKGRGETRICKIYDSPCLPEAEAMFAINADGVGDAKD
Nature of the experiment: Inhibition of RAD51 in human U2OS cells at 20 to 80 uM measured by direct repeats green fluorescent protein (DR-GFP) reporter assay. In kind it is cell-based. The conditions noted are these: dose 20-80 µM.

Take `C[C@@H]1Cc2ccccc2N1C(=O)COc1ccc(N(C)S(=O)(=O)c2ccccc2)cc1`: the inhibition entry in experiment [1] and in experiment [2] was “Active” throughout.

As to `Nc1ncnc2c1ncn2[C@@H]1O[C@H](COP(=O)(O)OP(=O)(O)OP(=O)(O)O)[C@@H](O)[C@H]1O`, the inhibition entry in experiment [1] was “Active”.

As to `Cc1c(F)cc(C(N)=O)cc1NC(=O)c1cccc(S(=O)(=O)Nc2ccccc2F)c1`, the inhibition result in experiment [1] is “Active”.

Turning to `Cc1ccc(-n2nnnc2SCC(=O)Nc2oc(C)c3c(C)n[nH]c(=O)c23)c(C)c1`, the inhibition entry in experiment [1] and in experiment [2] was “Active” each time.

For `Cc1cc(C)c(CNC(=O)c2cccc(S(=O)(=O)N3C[C@H](C)C[C@@H](C)C3)c2)c(=O)[nH]1`, the inhibition entry in experiment [1] was “Active”.

For `Nc1ncnc2c1ncn2[C@@H]1O[C@H](COP(=O)(O)OP(=O)(O)NP(=O)(O)O)[C@@H](O)[C@H]1O`, the inhibition entry in experiment [1] is “Active”.

The values above are taken from ChEMBL document CHEMBL5113497, “Comparison of ATP-binding pockets and discovery of homologous recombination inhibitors” (Bioorg Med Chem, 2022).
